Data set [1] concerns the target DENV-2 NS2B-NS3 protease (Dengue virus type 2, UniProt P29990). The data set can be described thus: Trans-cleavage FRET assay with DENV-2 NS2B-NS3 protease. Type of data set: cell-based. The note with it: for inhibition at 10 µM: read-out: Reduction of DENV-2 NS2B-NS3 protease activity.
Data set [2] relates to DENV-2 strain 16681. The data set can be described thus: In vitro infectivity assay (NS4B immunofluorescence/DAPI) in Vero E6 cells. Type of data set: cell-based. Particulars: for Selectivity Index (CC50/EC50): CC50 Vero E6 / EC50 infectivity; for EC50: Dengue virus, DENV2, Vero C1008, 96 h, read-out: Inhibition of DENV-2 Infectivity (EC50, μM).
Data set [3] relates to DENV-2. Description: Time-of-addition/removal assay with DENV-2. Type of data set: cell-based. The note with it: Dengue virus, DENV2; compound applied 2 h after infection, 18 h incubation; read-out: EC50 for viral infectivity, post-entry treatment.
The nature of data set [4]: MTT cytotoxicity assay. The format is cell-based, African green monkeys. Particulars: African green monkey, Vero E6 cells. In general terms: Tetrazolium assays rely on reduction of a dye to a coloured formazan, in cell work by metabolically active cells.
Data set [5] concerns DENV-2 strain 16681. The data set can be described thus: Virus yield assay (TCID50). Particulars: Dengue virus, DENV2, 96 h post-treatment. Type of data set: cell-based.
The mark [6] stands for this setting: trans-cleavage FRET assay, cells expressing CFP-trrg-YFP transfected with DENV-2 NS2B-NS3.

Sequence of DENV-2 NS2B-NS3 protease (P29990 1476-2093): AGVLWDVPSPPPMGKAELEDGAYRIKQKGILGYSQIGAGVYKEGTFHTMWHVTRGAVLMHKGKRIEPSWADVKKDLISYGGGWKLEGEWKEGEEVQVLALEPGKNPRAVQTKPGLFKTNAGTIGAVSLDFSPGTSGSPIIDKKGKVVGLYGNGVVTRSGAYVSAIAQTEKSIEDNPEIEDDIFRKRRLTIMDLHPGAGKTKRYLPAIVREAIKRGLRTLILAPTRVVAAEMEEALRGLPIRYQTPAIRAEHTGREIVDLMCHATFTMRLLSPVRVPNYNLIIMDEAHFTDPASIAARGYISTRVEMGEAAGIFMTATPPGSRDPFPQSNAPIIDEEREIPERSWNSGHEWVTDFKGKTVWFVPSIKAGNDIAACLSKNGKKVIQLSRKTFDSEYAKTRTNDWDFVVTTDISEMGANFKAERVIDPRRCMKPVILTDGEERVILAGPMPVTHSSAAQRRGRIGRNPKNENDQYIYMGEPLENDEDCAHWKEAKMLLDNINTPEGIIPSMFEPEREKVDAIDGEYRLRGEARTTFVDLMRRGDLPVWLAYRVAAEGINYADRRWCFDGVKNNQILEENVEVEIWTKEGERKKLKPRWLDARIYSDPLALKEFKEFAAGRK
Sequence of DENV-2 NS2B-NS3 protease (P29990 1346-1475): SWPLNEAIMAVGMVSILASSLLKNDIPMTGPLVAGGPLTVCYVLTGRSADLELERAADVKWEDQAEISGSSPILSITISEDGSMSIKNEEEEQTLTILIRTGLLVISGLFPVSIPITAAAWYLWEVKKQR

As for `CCOC(=O)C(Cc1ccccc1)NC(=O)C1OC(OC2C(OC3CCC4(C)C(CCC5(C)C4C(=O)C=C4C6CC(C)(C(=O)NC(Cc7ccccc7)C(=O)OCC)CCC6(C)CCC45C)C3(C)C)OC(C(=O)NC(Cc3ccccc3)C(=O)OCC)C(O)C2O)C(O)C(O)C1O` (stereo not shown) [Compound 8], the inhibition at 10 µM in data set [1] is greater than 20%.
In the case of `CCOC(=O)C(CC(C)C)NC(=O)C1OC(OC2C(OC3CCC4(C)C(CCC5(C)C4C(=O)C=C4C6CC(C)(C(=O)O)CCC6(C)CCC45C)C3(C)C)OC(C(=O)NC(CC(C)C)C(=O)OCC)C(O)C2O)C(O)C(O)C1O` (stereo not shown) [Compound 16], in data set [1], the inhibition at 10 µM was greater than 20%. For the same compound, the IC50 (in general, the concentration at which inhibition is half-maximal) in data set [1] (setting [6]) was greater than 10000 nM.
For the compound `CCOC(=O)CCNC(=O)C1OC(OC2C(OC3CCC4(C)C(CCC5(C)C4C(=O)C=C4C6CC(C)(C(=O)O)CCC6(C)CCC45C)C3(C)C)OC(C(=O)NCCC(=O)OCC)C(O)C2O)C(O)C(O)C1O` (stereo not shown) [Compound 17], the “Selectivity Index (CC50/EC50)” value in data set [2] is listed as greater than 23. Besides, the EC50 (as a rule, the concentration that produces a half-maximal response) in data set [2] came to 4.34 ± 0.008 µM; in data set [3], 2990 nM; in data set [5], 790 nM. Further, in data set [4], the CC50 (as a rule, the concentration giving 50% cytotoxicity) at 96 h was greater than 100000 nM. For the same compound, in data set [1], the inhibition at 10 µM was greater than 20%.
With `COC(=O)CCCCCCNC(=O)C1OC(OC2C(OC3CCC4(C)C(CCC5(C)C4C(=O)C=C4C6CC(C)(C(=O)O)CCC6(C)CCC45C)C3(C)C)OC(C(=O)NCCCCCCC(=O)OC)C(O)C2O)C(O)C(O)C1O` (stereo not shown) [Compound 19], the “Selectivity Index (CC50/EC50)” value in data set [2] is on record as greater than 42. Moreover, the EC50 in data set [2] was found to be 2.34 ± 0.08 µM; in data set [3] it was 1910 nM; in data set [5], 430 nM. For the same compound, the half-maximal cytotoxic concentration (CC50) at 96 h in data set [4] is greater than 100000 nM. Further, the inhibition at 10 µM in data set [1] was greater than 20%.
In the case of `CC1(C)[C@@H](O[C@H]2O[C@H](C(=O)O)[C@@H](O)[C@H](O)[C@H]2O[C@@H]2O[C@H](C(=O)O)[C@@H](O)[C@H](O)[C@H]2O)CC[C@]2(C)[C@H]3C(=O)C=C4[C@@H]5C[C@@](C)(C(=O)O)CC[C@]5(C)CC[C@@]4(C)[C@]3(C)CC[C@@H]12` [Compound 1, Glycyrrhizic acid, reference compound], the “NS2B-NS3 Protease (IC50, μM)” value in data set [1] (setting [6]) is recorded as “no inhibitory effect”.
In the case of `COC(=O)C(CCC(=O)O)NC(=O)C1OC(OC2C(OC3CCC4(C)C(CCC5(C)C4C(=O)C=C4C6CC(C)(C(=O)O)CCC6(C)CCC45C)C3(C)C)OC(C(=O)NC(CCC(=O)O)C(=O)OC)C(O)C2O)C(O)C(O)C1O` (stereo not shown) [Compound 12], the inhibition at 10 µM in data set [1] is greater than 20%.
As to `COC(=O)CCCCCCCCCCNC(=O)C1OC(OC2C(OC3CCC4(C)C(CCC5(C)C4C(=O)C=C4C6CC(C)(C(=O)O)CCC6(C)CCC45C)C3(C)C)OC(C(=O)NCCCCCCCCCCC(=O)OC)C(O)C2O)C(O)C(O)C1O` (stereo not shown) [Compound 20], the inhibition at 10 µM in data set [1] is greater than 20%. Also, the IC50 in data set [1] (setting [6]) was greater than 10000 nM.
Consider `CN(C)[C@@H]1C(O)=C(C(N)=O)C(=O)[C@@]2(O)C(O)=C3C(=O)c4c(O)cccc4[C@@](C)(O)[C@H]3C[C@@H]12` [T, tetracycline, reference compound], for which the inhibition at 10 µM in data set [1] is greater than 20%.
For `COC(=O)CCC(NC(=O)C1OC(OC2C(OC3CCC4(C)C(CCC5(C)C4C(=O)C=C4C6CC(C)(C(=O)O)CCC6(C)CCC45C)C3(C)C)OC(C(=O)NC(CCC(=O)OC)C(=O)OC)C(O)C2O)C(O)C(O)C1O)C(=O)OC` (stereo not shown) [Compound 11], the values for the EC50 in data set [2], in data set [3] and in data set [5] were 0.034 ± 0.001 µM, 5 nM and 42 nM, respectively. For the same compound, in data set [4], the CC50 at 96 h is greater than 100000 nM. Further, the inhibition at 10 µM in data set [1] was greater than 20%.

These data come from PMC11680386 (Viruses, 2024).
